pIC50: −log10 of the molar value.
How the values were obtained:
[1] = target: T1, human LPA1 (Homo sapiens, UniProt Q92633); experiment: LPA1 calcium flux assay (HLPA1 Ca Flux); format: cell-based; conditions: Human LPA1 expressing CHO cells, stimulated with 10 nM LPA
T1 construct: the full-length cDNA for human LPA1 was obtained by PCR of the reverse transcription reaction; expressed in transfected cells
Summary of the method: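 CHO cells stably expressing cloned human LPA1, serum-starved overnight and loaded with Calcium 4 dye, were preincubated 30 min at room temperature with compound. Cells were then challenged with 10 nM LPA and intracellular Ca2+ measured; IC50 values came from titration curves.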

[2] = target: T2, human LPA3 (Homo sapiens, UniProt Q9UBY5); experiment: LPA3 calcium flux assay; format: cell-based; conditions: Human LPA3 expressing CHO cells, stimulated with 10 nM LPA; read-out: HLPA3 Ca Flux IC50
T2 construct: The full-length cDNA fragment for human LPA3 was obtained by PCR from the vector; expressed in transfected cells; cDNA from the Missouri S&T cDNA Resource Center
T2 sequence (Q9UBY5 1-353): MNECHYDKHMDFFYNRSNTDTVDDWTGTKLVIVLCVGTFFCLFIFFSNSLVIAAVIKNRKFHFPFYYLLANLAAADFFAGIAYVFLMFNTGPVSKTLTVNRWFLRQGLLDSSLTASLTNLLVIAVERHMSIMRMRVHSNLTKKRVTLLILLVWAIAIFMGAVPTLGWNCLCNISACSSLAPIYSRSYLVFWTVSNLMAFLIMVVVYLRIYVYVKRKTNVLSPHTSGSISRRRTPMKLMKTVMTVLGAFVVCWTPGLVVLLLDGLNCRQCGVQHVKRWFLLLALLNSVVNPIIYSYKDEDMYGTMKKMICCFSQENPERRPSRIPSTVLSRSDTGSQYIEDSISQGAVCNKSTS
Method: A vector containing the human LPA3 receptor cDNA was obtained from the Missouri S&T cDNA Resource Center (www.cdna.org). The full-length cDNA fragment for human LPA3 was obtained by PCR from the vector. The nucleotide sequence of the cloned human LPA3 was determined by sequencing and confirmed to be identical to the published human LPA3 sequence (NCBI accession number NM 012152). The cDNA was cloned into the pcDNA5/FRT expression plasmid and transfected in CHO cells using lipofectamine 2000 (Invitrogen Corp., USA). Clones stably expressing human LPA3 were selected using hygromycin and identified as cells that show Ca-influx in response to LPA.
Human LPA1 or LPA3 expressing CHO cells are seeded at 20,000-45,000 cells per well in a 96-well poly-D-lysine coated plate one or two days before the assay. Prior to the assay, the cells are washed once with PBS and then cultured in serum-free media overnight. On the day of the assay, a calcium indicator dye (Calcium 4, Molecular Devices) in assay buffer (HBSS with Ca^2+ and Mg^2+ and containing 20 mM Hepes and 0.3% fatty-acid free human serum albumin) is added to each well and incubation continued for 1 hour at 37° C. 10 μl of test compounds in 2.5% DMSO are added to the cells and incubation continued at room temperature for 30 minutes. Cells are the stimulated by the addition of 10 nM LPA and intracellular Ca^2+ measured using the Flexstation 3 (Molecular Devices). IC50s are determined using Graphpad prism analysis of drug titration curves.

T1 sequence (Q92633 whole entry): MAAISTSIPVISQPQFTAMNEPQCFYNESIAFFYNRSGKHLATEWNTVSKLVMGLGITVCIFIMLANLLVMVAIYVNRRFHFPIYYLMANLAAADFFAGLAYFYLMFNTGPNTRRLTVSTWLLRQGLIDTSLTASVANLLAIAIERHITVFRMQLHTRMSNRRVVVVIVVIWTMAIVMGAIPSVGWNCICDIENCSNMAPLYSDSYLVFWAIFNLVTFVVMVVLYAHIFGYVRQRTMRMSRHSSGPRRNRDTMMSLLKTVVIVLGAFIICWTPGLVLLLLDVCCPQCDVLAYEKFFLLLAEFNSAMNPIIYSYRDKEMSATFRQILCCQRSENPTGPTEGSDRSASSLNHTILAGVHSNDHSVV

Structure (SMILES) | pIC50 [1] | pIC50 [2]
Cc1noc(-c2cccc(-c3cccc(C(=O)O)c3)c2)c1NC(=O)OC(C)c1ccccc1Cl (centres unmarked) [Compound 1-31, 3′-{4-[1-(2-Chloro-phenyl)-ethoxycarbonylamino]-3-methyl-isoxazol-5-yl}-biphenyl-3-carboxylic acid] | 4.30 to 6.00 | 4.30 to 6.00
Cc1noc(-c2cccc(C3=CCC(C(=O)O)CC3)c2)c1NC(=O)OC(C)c1ccccc1Cl (centres unmarked) [Compound 1-45, 4-(3-{4-[1-(2-Chloro-phenyl)-ethoxycarbonylamino]-3-methyl-isoxazol-5-yl}-phenyl)-cyclohex-3-enecarboxylic acid] | > 6.52 | < 4.30
Cc1noc(-c2ccc(-c3ccc(CC(=O)O)cc3)nc2)c1NC(=O)OC(C)c1ccccc1F (centres unmarked) [Compound 1-48] | > 6.52 | < 4.30
COc1ccc(CC(=O)O)cc1-c1ccc(-c2onc(C)c2NC(=O)OC(C)c2ccccc2Cl)cc1 (centres unmarked) [Compound 1-49, (4′-{4-[1-(2-Chloro-phenyl)-ethoxycarbonylamino]-3-methyl-isoxazol-5-yl}-6-methoxy-biphenyl-3-yl)-acetic acid] | 6.00 to 6.52 | 4.30 to 6.00
Cc1noc(-c2cccc(-c3cccc(CC(=O)O)c3)c2)c1NC(=O)OC(C)c1ccccc1Cl (centres unmarked) [Compound 1-60, (3′-{4-[1-(2-Chloro-phenyl)-ethoxycarbonylamino]-3-methyl-isoxazol-5-yl}-biphenyl-3-yl)-acetic acid] | 4.30 to 6.00 | 4.30 to 6.00
Cc1noc(-c2ccc(-c3ccc(CCC(=O)O)cc3)cc2)c1NC(=O)OC(C)c1ccccc1Cl (centres unmarked) [Compound 1-62, 3-(4′-{4-[1-(2-Chloro-phenyl)-ethoxycarbonylamino]-3-methyl-isoxazol-5-yl}-biphenyl-4-yl)-propionic acid] | > 6.52 | 4.30 to 6.00
Cc1noc(-c2ccc(C3=CCC(C(=O)O)CC3)cc2)c1NC(=O)OC(C)c1ccccc1Cl (centres unmarked) [Compound 1-66, 4-(4-{4-[1-(2-Chloro-phenyl)-ethoxycarbonylamino]-3-methyl-isoxazol-5-yl}-phenyl)-cyclohex-3-enecarboxylic acid] | > 6.52 | 4.30 to 6.00
Cc1noc(-c2ccc(C3CCC(C(=O)O)CC3)cc2)c1NC(=O)OC(C)c1ccccc1Cl (centres unmarked) [Compound 1-67, 4-(4-{4-[1-(2-Chloro-phenyl)-ethoxycarbonylamino]-3-methyl-isoxazol-5-yl}-phenyl)-cyclohexanecarboxylic acid] | > 6.52 | 4.30 to 6.00
COC(=O)Cc1ccc(-c2ccc(-c3onc(C)c3NC(=O)OC(C)c3ccccc3Cl)cc2)cc1 (centres unmarked) [Compound 1-69, (4′-{4-[1-(2-Chloro-phenyl)-ethoxycarbonylamino]-3-methyl-isoxazol-5-yl}-biphenyl-4-yl)-acetic acid methyl ester] | > 6.52 | 4.30 to 6.00
Cc1noc(-c2ccc(-c3ccc(C(C)C(=O)O)cc3)cc2)c1NC(=O)OC(C)c1ccccc1F (centres unmarked) [Compound 1-74, 2-(4′-{4-[1-(2-Fluoro-phenyl)-ethoxycarbonylamino]-3-methyl-isoxazol-5-yl}-biphenyl-4-yl)-propionic acid] | > 6.52 | 4.30 to 6.00
Cc1noc(-c2ccc(-c3ccc(CC(=O)O)cc3)cc2)c1NC(=O)OC(C)c1ccc(Cl)cc1F (centres unmarked) [Compound 1-77, (4′-{4-[1-(4-Chloro-2-fluoro-phenyl)-ethoxycarbonylamino]-3-methyl-isoxazol-5-yl}-biphenyl-4-yl)-acetic acid] | > 6.52 | 4.30 to 6.00

More lines, now with the values ahead:

pIC50 [1] | pIC50 [2] | Structure (SMILES)
> 6.52 | 4.30 to 6.00 | Cc1noc(-c2ccc(-c3cc(C(=O)O)ccn3)cc2)c1NC(=O)OC(C)c1ccccc1Cl (centres unmarked) [Compound 1-50, 2-(4-{4-[1-(2-Chloro-phenyl)-ethoxycarbonylamino]-3-methyl-isoxazol-5-yl}-phenyl)-isonicotinic acid]
> 6.52 | 4.30 to 6.00 | Cc1noc(-c2ccc(-c3ccc(C(=O)O)cc3)cc2)c1NC(=O)OC(C)c1ccccc1Cl (centres unmarked) [Compound 1-51, 4′-{4-[1-(2-Chloro-phenyl)-ethoxycarbonylamino]-3-methyl-isoxazol-5-yl}-biphenyl-4-carboxylic acid]
> 6.52 | 4.30 to 6.00 | Cc1noc(-c2ccc(-c3cccc(C(=O)O)n3)cc2)c1NC(=O)OC(C)c1ccccc1Cl (centres unmarked) [Compound 1-53, 6-(4-{4-[1-(2-Chloro-phenyl)-ethoxycarbonylamino]-3-methyl-isoxazol-5-yl}-phenyl)-pyridine-2-carboxylic acid]
> 6.52 | 4.30 to 6.00 | Cc1noc(-c2ccc(-c3ccc(C(=O)O)cn3)cc2)c1NC(=O)OC(C)c1ccccc1Cl (centres unmarked) [Compound 1-54, 6-(4-{4-[1-(2-Chloro-phenyl)-ethoxycarbonylamino]-3-methyl-isoxazol-5-yl}-phenyl)-nicotinic acid]
> 6.52 | 4.30 to 6.00 | Cc1noc(-c2ccc(-c3ccc(C(=O)O)nc3)cc2)c1NC(=O)OC(C)c1ccccc1Cl (centres unmarked) [Compound 1-56, 5-(4-{4-[1-(2-Chloro-phenyl)-ethoxycarbonylamino]-3-methyl-isoxazol-5-yl}-phenyl)-pyridine-2-carboxylic acid]
> 6.52 | 4.30 to 6.00 | Cc1noc(-c2ccc(-c3ccccc3CC(=O)O)cc2)c1NC(=O)OC(C)c1ccccc1Cl (centres unmarked) [Compound 1-57, (4′-{4-[1-(2-Chloro-phenyl)-ethoxycarbonylamino]-3-methyl-isoxazol-5-yl}-biphenyl-2-yl)-acetic acid]
> 6.52 | 4.30 to 6.00 | Cc1noc(-c2ccc(-c3ccc(CC(=O)O)cc3)cc2)c1NC(=O)OC(C)c1ccccc1Cl (centres unmarked) [Compound 1-58, (4′-{4-[1-(2-Chloro-phenyl)-ethoxycarbonylamino]-3-methyl-isoxazol-5-yl}-biphenyl-4-yl)-acetic acid]
> 6.52 | 4.30 to 6.00 | Cc1noc(-c2ccc(-c3cccc(CC(=O)O)c3)cc2)c1NC(=O)OC(C)c1ccccc1Cl (centres unmarked) [Compound 1-59, (4′-{4-[1-(2-Chloro-phenyl)-ethoxycarbonylamino]-3-methyl-isoxazol-5-yl}-biphenyl-3-yl)-acetic acid]
> 6.52 | 4.30 to 6.00 | Cc1noc(-c2ccc(-c3ccc(CC(=O)O)cn3)cc2)c1NC(=O)OC(C)c1ccccc1Cl (centres unmarked) [Compound 1-61, [6-(4-{4-[1-(2-Chloro-phenyl)-ethoxycarbonylamino]-3-methyl-isoxazol-5-yl}-phenyl)-pyridin-3-yl]-acetic acid]
> 6.52 | 4.30 to 6.00 | Cc1noc(-c2ccc(-c3cncc(CC(=O)O)c3)cc2)c1NC(=O)OC(C)c1ccccc1Cl (centres unmarked) [Compound 1-63, [5-(4-{4-[1-(2-Chloro-phenyl)-ethoxycarbonylamino]-3-methyl-isoxazol-5-yl}-phenyl)-pyridin-3-yl]-acetic acid]
> 6.52 | 4.30 to 6.00 | Cc1noc(-c2ccc(-c3cc(CC(=O)O)ccc3F)cc2)c1NC(=O)OC(C)c1ccccc1Cl (centres unmarked) [Compound 1-64, (4′-{4-[1-(2-Chloro-phenyl)-ethoxycarbonylamino]-3-methyl-isoxazol-5-yl}-6-fluoro-biphenyl-3-yl)-acetic acid]
> 6.52 | 4.30 to 6.00 | Cc1noc(-c2ccc(-c3ccc(F)c(CC(=O)O)c3)cc2)c1NC(=O)OC(C)c1ccccc1Cl (centres unmarked) [Compound 1-65, (4′-{4-[1-(2-Chloro-phenyl)-ethoxycarbonylamino]-3-methyl-isoxazol-5-yl}-4-fluoro-biphenyl-3-yl)-acetic acid]
> 6.52 | 4.30 to 6.00 | Cc1noc(-c2ccc(-c3ccc(C(C)C(=O)O)cc3)cc2)c1NC(=O)OC(C)c1ccccc1Cl (centres unmarked) [Compound 1-71, 2-(4′-{4-[1-(2-Chloro-phenyl)-ethoxycarbonylamino]-3-methyl-isoxazol-5-yl}-biphenyl-4-yl)-propionic acid]
> 6.52 | 4.30 to 6.00 | Cc1noc(-c2ccc(-c3cccc(C(=O)O)c3)cc2)c1NC(=O)OC(C)c1ccccc1Cl (centres unmarked) [Compound 1-76, 4′-{4-[1-(2-Chloro-phenyl)-ethoxycarbonylamino]-3-methyl-isoxazol-5-yl}-biphenyl-3-carboxylic acid]
